Source: BigSolDB 2.1

Settings: in water

CC(C)Br
Settings | solubility (mole fraction)
295.25 K | 0.000587
300.15 K | 0.00082
303.55 K | 0.00104
306.25 K | 0.00121
310.35 K | 0.00157
313.25 K | 0.00189
316.15 K | 0.00227
321.25 K | 0.00307
323.25 K | 0.00343
325.55 K | 0.00394
329.35 K | 0.00483
331.25 K | 0.00536
334.15 K | 0.0063
337.35 K | 0.00743
340.55 K | 0.0087
343.15 K | 0.0101
345.45 K | 0.0112
348.55 K | 0.0127
350.15 K | 0.0139
352.35 K | 0.0154
354.75 K | 0.0171

NC(N)=S
Settings | solubility (mole fraction)
290.75 K | 0.0256
293.05 K | 0.0289
296.65 K | 0.0347
300.25 K | 0.0413
303.15 K | 0.0474
307.1 K | 0.0583
310.15 K | 0.0641
313.15 K | 0.071
315.85 K | 0.0806
318.35 K | 0.0886
320.75 K | 0.0969
323.25 K | 0.103
326.05 K | 0.116
328.45 K | 0.126
330.55 K | 0.135
333.25 K | 0.15
336.45 K | 0.161
340.75 K | 0.183
343.55 K | 0.198
347.35 K | 0.218
351.15 K | 0.239
353.45 K | 0.251
355.75 K | 0.265
